Data as given in patent US20240010693A1, “PEPTIDES FROM HUMAN B-CASEIN THAT HAVE ANTI-BACTERIAL ACTIVITY” (priority 2020, published 2024).
“Also recorded” adds a separate entry of the source.

Experiments:
Porphyromonas gingivalis = experiment: Kill assay on TSA plates (5% difibrinated blood); assay type: cell-based
Excerpt: Porphyromonas gingivalis (a keystone pathogen in chronic periodontitis, and identified in the brains of Alzheimer's patients) is sensitive to HBCA1 and HBCA2 peptides.

[1] = test system: commensal Lactobacillus strains; experiment: Activity against commensal strains; assay type: cell-based; conditions: strains commonly found in infant and adult gut
[2] = test system: commensal Bifidobacterium strains; experiment: Activity against commensal strains; assay type: cell-based; conditions: strains commonly found in infant and adult gut
G. vaginalis = experiment: Direct kill assay on HBT bilayer Gardnerella media; assay type: cell-based, Gardnerella vaginalis
Procedure: When we subjected G. vaginalis to direct kill assays using HBCA1 and HBCA2, we observed that both peptides render G. vaginalis non-viable within 30 minutes, as indicated by loss of bacterial growth on HBT bilayer Gardnerella media (FIG. 9).

[3] = test system: indicated bacterial pathogens; experiment: Direct kill assay; assay type: cell-based; conditions: 50 mg/ml
Procedure: (§1) All three peptides were tested using direct kills assays. Equal inoculums of indicated bacterial pathogens were incubated either with water (−) or 50 mg/ml of HBCA1, HBCA2 or HBCA2.C. Aliquots were spotted at T=0 min (start of incubation) and at 30 minutes post incubation (T=30 min) on LB-agar plates, and incubated at 37° C. overnight to see growth.

P. aeruginosa = experiment: Direct kill assay; assay type: cell-based
Procedure: as §1

[4] = test system: above-mentioned bacterial strains; experiment: Spot assays on bacterial lawns and direct kill assays of synthetic peptides; assay type: cell-based
Procedure: The fractions were dried and reconstituted in water and spotted onto Tryptic soy agar plates that were spread with 100 μL of select bacterial grown overnight in tryptic soy broth.
We have named them HBCA1 and HBCA2.
as §1

L. monocytogenes = experiment: Killing of pathogenic bacteria; assay type: cell-based
Procedure: as §1

E. coli (EHEC) = experiment: Killing of pathogenic bacteria; assay type: cell-based
Procedure: as §1

E. faecalis = experiment: Killing of pathogenic bacteria; assay type: cell-based
Procedure: as §1

S. enteritidis = experiment: Killing of pathogenic bacteria; assay type: cell-based
Procedure: as §1

S. aureus (MRSA) = experiment: Killing of pathogenic bacteria; assay type: cell-based
Procedure: as §1

K. pneunomiae = experiment: Killing of pathogenic bacteria; assay type: cell-based, K. pneumoniae
Procedure: as §1

K. pneumoniae = experiment: Activity on TSA plates (FIG. 16); assay type: cell-based; conditions: 20 mg/ml and 10 mg/ml on TSA plates
Procedure: FIG. 16 depicts activity of HBCA2 peptide against K. pneumoniae at 20 mg/ml and 10 mg/ml on TSA plates.

Sequence: RVMPVLKSPTIP (listed as Homo sapiens) [HBCA2]
- killing of Porphyromonas gingivalis (Porphyromonas gingivalis): kills
- sensitivity of P. gingivalis (Porphyromonas gingivalis): sensitive
- speed of loss of viability of P. gingivalis (Porphyromonas gingivalis; upon mixing cells with peptide): rapid killing; also recorded: rapidly lose viability right at 0 minutes
- activity against commensal Lactobacillus strains [1]: no detected activity
- activity against commensal Bifidobacterium strains [2]: no detected activity
- killing of Gardnerella vaginalis (G. vaginalis): kills
- relative activity of the peptides in direct kill assays [3]: more potent in its activity than the larger HBCA1 peptide
- killing of P. aeruginosa (P. aeruginosa): kills
- loss of viability of P. aeruginosa (P. aeruginosa; 50 mg/ml, T=0 min): rapidly lost (while mixing at T0)
- antibacterial activity [4]: showed antibacterial activity
- killing of L. monocytogenes (L. monocytogenes): kills
- killing of E. coli (EHEC) (E. coli (EHEC)): kills
- killing of E. faecalis (E. faecalis): kills
- killing of S. enteritidis (S. enteritidis): kills
- killing of S. aureus (MRSA) (S. aureus (MRSA)): kills
- killing / viability of K. pneumoniae (K. pneunomiae): kills

Sequence: RVRPKLKSPRIP [HBCA2.4]
- relative potency against K. pneumoniae (K. pneumoniae): most potent of the HBCA peptides

Sequence: TVYTKGRVMPVLKSPTIPFFDPQI (listed as Homo sapiens) [HBCA1]
- sensitivity of P. gingivalis (Porphyromonas gingivalis): sensitive
- antibacterial activity [4]: showed antibacterial activity
